# Measured values taken from patent publication US11660313B2, “Compositions and methods for application over skin” (Shiseido Company, Limited, priority 2015, dated 2023).
# Assay: Solubility of triamcinolone acetonide in receptor fluid
# Assay type: physicochemical
# Details: not told, aqueous with cosolvent or surfactant or cyclodextrin; PBS at pH 7.4 with 2 wt % hydroxypropyl-beta-cyclodextrin
# Experimental: Receptor fluid preparation: Based on the results of solubility studies, a receptor fluid of phosphate buffered saline (PBS) at pH 7.4 with 2 wt % hydroxypropyl-beta-cyclodextrin (HPBCD) was chosen. […] The preparation and degassing of the receptor fluid was prepared at an appropriate pH and degassing was carried out by filtering the receptor fluid through a ZapCap CR 0.2 μm membrane while pulling vacuum.
structure (smiles),measurement,value
CC1(C)O[C@@H]2C[C@H]3[C@@H]4CCC5=CC(=O)C=C[C@]5(C)[C@@]4(F)[C@@H](O)C[C@]3(C)[C@]2(C(=O)CO)O1 [triamcinolone acetonide],solubility,~282 µg/mL
